Columns and labels:
[1] = IR700 at absorption maximum 689 nm; Photofrin 630 nm; Foscan 652 nm; NPe6 654 nm; cited from earlier work
[2] = Excretion of free and catabolized IR700; conditions: in vivo
[3] = Extinction coefficient of photosensitizers; type: physicochemical
Source text: Currently commercially available from LI-COR (Lincoln, Nebr.). IR700 has several favorable chemical properties. Amino-reactive IR700 is a relatively hydrophilic dye and can be covalently conjugated with an antibody using the NHS ester of IR700. IR700 also has more than 5-fold higher extinction coefficient (2.1×10^5 M^−1cm^−1 at the absorption maximum of 689 nm), than conventional photosensitizers such as the hematoporphyrin derivative Photofrin® (1.2×10^3 M^−1cm^−1 at 630 nm), meta-tetrahydroxyphenylchlorin; Foscan® (2.2×10^4 M^−1cm^−1 at 652 nm), and mono-L-aspartylchlorin e6; NPe6/Laserphyrin® (4.0×10^4 M^−1cm^−1 at 654 nm).

3T3/HER2+ cells = test: Photoimmunotherapy (PIT) phototoxicity, LIVE/DEAD assay; type: cell-based; conditions: 200 nM, equivalent IR700 concentration of conjugate
Experimental: Cells were grown in RPMI 1640 supplemented with 10% fetal bovine serum and 1% penicillin/streptomycin in tissue culture flasks in a humidified incubator at 37° C. in an atmosphere of 95% air and 5% carbon dioxide.
Culture medium was replaced with phenol red-free medium after washing with phosphate buffered saline (PBS).

MDA-MB-468 tumors = test: In vivo delivery of Pan-IR800 after Pan-IR700 PIT; design: species or system mice; conditions: 50 J/cm2 to right side tumor; agent 1 h after PIT
Source text: In vivo fluorescence imaging. Five days after injection of two million A431 or 3T3-HER2 cells in right and left dorsums, and seven days after MDA-MB-468 cells injection in mammary pads, tumor volumes of approximately 75 mm^3 were selected. Signals of IR700 and IR800 was detected with a fluorescence camera (Pearl Imager, LI-COR Biosciences) using the 700 and 800 nm fluorescence channel Qdot800 was detected with Maestro in vivo Imaging System (CRi) using a band-pass filter, which ranges between 575 to 605 nm (excitation) and a long-pass NIR filter over 800 nm (emission). Fluorescence images of daunorubicin were also obtained with Maestro using a band-pass filter from 503 to 555 nm (excitation) and a long-pass green filter over 580 nm (emission). The tunable emission filter was automatically stepped in 10 nm increments from 650 to 950 nm and from 500 to 800 nm for the NIR and green filter sets at constant exposure. The spectral fluorescence images consist of autofluorescence spectra and the spectra from Qdot800 and daunorubicin, which were then unmixed, based on their spectral patterns using commercial software (Maestro software; CRi). Mice were sacrificed with carbon dioxide immediately after in vivo imaging. The tumors were excised, and frozen or paraffin-embedded for histological study and fluorescence microscopy study after ex vivo imaging. […]

A431 tumors = test: In vivo nanodrug-delivery after PIT (super EPR); design: species or system mice
Experimental: In vivo nanodrug-delivery after photoimmunotherapy. Six-week-old to 8-week-old female homozygote athymic nude mice were purchased from Charles River (National Cancer Institute Frederick). During treatment, mice were anesthetized with isoflurane. Two million A431 cells were injected subcutaneously in the right and left dorsums of each mouse. Five days after cell injection, 100 μg of Pan-IR700 was administered intravenously, and 1 day later, either side of tumor was irradiated with NIR light from a red-light-emitting diode at wavelengths of 670-690 nm and a power density of 10-100 J cm^−2, as measured with an optical power meter (PM 100 (Thorlabs)). One hour after PIT, Pan-IR800 (100 μg), Qtracker 800 Non-Targeted Quantum dots (32.5 pmol), or DaunoXome (30 mg kg^−1) were injected intravenously, and the in vivo fluorescence images were obtained with a Pearl Imager (LI-COR Biosciences) and a Maestro Imager (CRi). For MR imaging, SPIO (Feridex) was administered intravenously 1 h post-PIT and MR images were obtained. The tumors were excised, and frozen or paraffin-embedded for histological study and fluorescence microscopy study after ex vivo imaging.
In vivo fluorescence imaging. Five days after injection of two million A431 or 3T3-HER2 cells in right and left dorsums, and seven days after MDA-MB-468 cells injection in mammary pads, tumor volumes of approximately 75 mm^3 were selected. Signals of IR700 and IR800 was detected with a fluorescence camera (Pearl Imager, LI-COR Biosciences) using the 700 and 800 nm fluorescence channel Qdot800 was detected with Maestro in vivo Imaging System (CRi) using a band-pass filter, which ranges between 575 to 605 nm (excitation) and a long-pass NIR filter over 800 nm (emission). Fluorescence images of daunorubicin were also obtained with Maestro using a band-pass filter from 503 to 555 nm (excitation) and a long-pass green filter over 580 nm (emission). The tunable emission filter was automatically stepped in 10 nm increments from 650 to 950 nm and from 500 to 800 nm for the NIR and green filter sets at constant exposure. The spectral fluorescence images consist of autofluorescence spectra and the spectra from Qdot800 and daunorubicin, which were then unmixed, based on their spectral patterns using commercial software (Maestro software; CRi). Mice were sacrificed with carbon dioxide immediately after in vivo imaging. The tumors were excised, and frozen or paraffin-embedded for histological study and fluorescence microscopy study after ex vivo imaging.
Fluorescence microscopy. Ten-μm-thick frozen or paraffin sections were prepared and fluorescence in tumor sections was detected using an Olympus BX81 microscope (Olympus America, Inc., Melville, N.Y.) equipped with the following filters: excitation wavelength 590 to 650 nm, and 480 to 550 nm, emission wavelength 662.5 to 747.5 nm, 765 to 855 nm, and 590 nm long pass for IR700, Qdot800, and daunorubicin, respectively. Transmitted light differential interference contrast images were also acquired. H&E staining and Prussian Blue staining were performed according to standard protocol.
Optimal timing of second shot. To determine the optimal timing of second shot, Pan-IR800 (100 μg) was administered intravenously into A431 bearing mice at 1, 6, and 24 h after PIT treatment, and the dynamic imaging for 1 h was carried out with Pearl Imager according to the protocol described above.

Compound: Oc1cccc(-c2c3nc(c(-c4cccc(O)c4)c4ccc([nH]4)c(-c4cccc(O)c4)c4nc(c(-c5cccc(O)c5)c5ccc2[nH]5)CC4)C=C3)c1 [Foscan®, meta-tetrahydroxyphenylchlorin]
- extinction coefficient [1]: 22000 M⁻¹ cm⁻¹

Compound: C=Cc1c(C)c2cc3nc(c(CC(=O)N[C@@H](CC(=O)[O-])C(=O)[O-])c4[nH]c(cc5nc(cc1[nH]2)C(C)=C5CC)c(C)c4C(=O)[O-])[C@@H](CCC(=O)[O-])[C@@H]3C.[Na+].[Na+].[Na+].[Na+] [NPe6/Laserphyrin®, mono-L-aspartylchlorin e6]
- extinction coefficient [1]: 40000 M⁻¹ cm⁻¹

Compound: IRDye® 700DX [IR700]
- extinction coefficient [1]: 210000 M⁻¹ cm⁻¹
- organ accumulation [2]: without accumulation in any specific organ
- time to excretion into urine [2]: ≤ 1 h
- extinction coefficient higher than conventional photosensitizers [3]: more than 5 fold
- phototoxicity of dye alone (3T3/HER2+ cells): did not incorporate into the cells or induce phototoxcity in cells

Compound: Pan-IR800: panitumumab conjugated to IRDye 800CW
- tumor shown in dynamic images (MDA-MB-468 tumors): only the right sided tumor was clearly shown up within 10 min
- change of perfusion by PIT with time after treatment (A431 tumors; Pan-IR800 given 1, 6, and 24 h after PIT): completely stopped within 24 h
- uptake/signal in control tumors without NIR light (A431 tumors; agent i.v. 1 h after PIT of contralateral tumor): no change on signal intensities
- accumulation in PIT-treated tumors (A431 tumors; agent i.v. 1 h after Pan-IR700 PIT): facilitated the permeability
- signal intensities in PIT-treated tumors versus light dose (A431 tumors; mouse, in vivo): increased with time in a light dose-dependent manner
- tumor uptake when given 24 h after PIT (A431 tumors; mouse, in vivo): cannot be taken up by the tumor

Compound: Photofrin®
- extinction coefficient [1]: 1200 M⁻¹ cm⁻¹

Reference: US12616751B2, “Photosensitizing antibody-fluorophore conjugates” (The USA, as represented by the Secretary, Department of …, priority 2010, dated 2026)
